Source: US20060084134A1, “Direct ethanol metabolite ethyl sulfate as an useful diagnostic and therapeutic marker of alcohol consumption” (priority 2004, published 2006)
Structures can show the parent of a compound that is named as a salt. Where two headings read alike, the source gives them in different places.

Tests used:
[1] = human, in vivo
Protocol: (§1) Characteristic tandem-mass spectrometric fragmention of EtS, purchased from ABCR Karlsruhe/Germany, was obtained when analyzing EtS solution in product ion scan mode: deprotonated molecule (M-H)^−, m/z 125 and fragment ions m/z 80 and 97. An LC-MS/MS-method, which has previously been published for the determination of EtG (Weinmann 2004), was modified by inclusion of the transitions for EtS. Subsequent LC/MS/MS-analysis was performed in MRM-mode (m/z 125 to m/z 97 and m/z 80 and by monitoring the unfragmented precursor ion (m/z 125) of EtS (ion chromatograms of diluted reference solution see FIG. 1). A gradient elution with increasing acetonitrile concentration of the eluting solvent was used—all other chromatographic equipment was as described in the article by Weinmann et al. (Weinmann 2004).
(§2) Sample preparation was done by addition of D5-EtG and dilution of the urine sample prior to injection in the LC-MS/MS system. Quantification was performed using D5-EtG as internal standard.

[2] = cited from earlier work
[3] = cited from earlier work; remark: listed apart in the source
[4] = Controlled drinking experiment with a healthy volunteer: urinary excretion profile by LC-MS/MS; details: for UAC (urine alcohol concentration): 540 ml wine, 49 g ethanol
Protocol: as §1, §2

Molecule: CCOS(=O)(=O)O [EtS, ethyl sulfate]
- time detectable in urine [1]: up to 36 hours

Molecule: CCO[C@@H]1O[C@H](C(=O)O)[C@@H](O)[C@H](O)[C@H]1O [EtG, ethyl glucuronide]
- detection in urine at the last time point [1]: positive
- time detectable following complete elimination of alcohol from the body ([2]; dose-dependently, after even minor amounts of alcohol like 10 grams): 4 days
- time detectable in hair [2]: months
- time detectable in urine after cessation of ethanol intake ([2]; urine): up to 5 days
- water solubility (in words) [3]: water-soluble

Molecule: CCO [ethanol]
- time since which urinary ethanol (UAC) had not been detectable ([4]; counted back from the 36 hours time point): 23 h
- UAC (urine alcohol concentration) ([4]; 0 h:min after ethanol uptake): 0.003 g %
- UAC (urine alcohol concentration) ([4]; 1:00 h:min after ethanol uptake): 0.022 g %
- UAC (urine alcohol concentration) ([4]; 2:06 h:min after ethanol uptake): 0.078 g %
- UAC (urine alcohol concentration) ([4]; 2:46 h:min after ethanol uptake): 0.082 g %
- UAC (urine alcohol concentration) ([4]; 8:00 h:min after ethanol uptake): 0.046 g %
- UAC (urine alcohol concentration) ([4]; 11:20 h:min after ethanol uptake): 0.003 g %
- UAC (urine alcohol concentration) ([4]; 13:20 h:min after ethanol uptake): 0 g %
- UAC (urine alcohol concentration) ([4]; 14:50 h:min after ethanol uptake): 0 g %
- UAC (urine alcohol concentration) ([4]; 16:40 h:min after ethanol uptake): 0 g %
- UAC (urine alcohol concentration) ([4]; 19:10 h:min after ethanol uptake): 0 g %
- UAC (urine alcohol concentration) ([4]; 21:30 h:min after ethanol uptake): 0 g %
- UAC (urine alcohol concentration) ([4]; 26:30 h:min after ethanol uptake): 0 g %
- UAC (urine alcohol concentration) ([4]; 32:00 h:min after ethanol uptake): 0 g %
- UAC (urine alcohol concentration) ([4]; 36:00 h:min after ethanol uptake): 0 g %

Molecule: fatty acid ethyl esters [FAEEs]
- time detectable in hair [2]: several months
- time detectable in hair ([2]; listed as FAEE): months
- time detectable in serum and erythrocytes after drinking ([2]; serum and erythrocytes): up to 24 h
- time detectable in serum after cessation of ethanol intake ([2]; serum): up to 24 h
- stability in blood samples (in words) ([3]; blood samples, continued enzyme activity): not stable

Molecule: phosphatidylethanol [PEth]
- time detectable in whole blood after cessation of ethanol intake ([2]; whole blood): > 2 weeks
